We go through 19 molecules from patent US20070059272A1 (priority 2005, published 2007).

“Also recorded” adds a separate entry of the source.

The test system of series [1] is pyocyanin (PCN) production in P. aeruginosa PAO1. It is filed as cell-based, Pseudomonas aeruginosa.
The test system of series [2] is PA-I promoter activity in reporter strain PA27853/PLL-EGFP.
Series [3] has as its system membrane fractions of P. aeruginosa (PAO1). Put plainly: ELISA binding to membrane fractions and solubilized membrane proteins of P. aeruginosa PAO1. Also noted: species or system Pseudomonas aeruginosa. The note with it: human cytokines, ELISA. A general note: An ELISA detects its analyte on a solid surface through an enzyme-linked reagent.
The subject of the next series is PA-I mRNA in PA27853. Put plainly: PA-I mRNA in PA27853 exposed to Caco-2 cells or cell fractions with and without GalNac. The conditions noted are these: in the presence of GalNac. It is filed as cell-based, Pseudomonas aeruginosa. On the procedure:
Using Caco-2 intestinal epithelial cells, the issue of whether components of intestinal epithelial cells themselves played a role in triggering the expression of PA-I was addressed. Strain PA27853 was exposed to media (apical and basolateral) and Caco-2 cell fractions (cytosolic, nuclear, membrane) at various time intervals. PA-I mRNA was measured in PA27853 in response to the various Caco-2 cell media fractions in the presence and absence of GalNac, a sugar that binds specifically to PA-I and prevents P. aeruginosa adherence to Caco-2 cells. Media alone from Caco-2 cells grown in transwells (apical or basolateral) had no effect on PA-I expression. However, Caco-2 cell membrane fractions triggered the accumulation of a very high abundance of PA-I mRNA (>10 fold increase)-an effect that was attenuated in the presence of GalNac (FIG. 7A). These in vitro findings are in agreement with the above mouse studies showing that PA-I can be activated in response to contact with the intestinal epithelium, yet in the unstressed Caco-2 cell system, luminal contents (apical media) had no effect, similar to the control mice. […]

Series [4] relates to intestinal epithelial cells. The note with it: cited from earlier work; for adhesion of P. aeruginosa to intestinal epithelial cells: 0.6% solution.
The target in series [5] is membrane proteins of P. aeruginosa strain PAO1 (whole fixed cells, membrane fractions, solubilized membrane proteins).
The test system of series [6] is PA-I expression in P. aeruginosa. It is filed as cell-based, Pseudomonas aeruginosa.
The test system of the next series is PA-IL in P. aeruginosa. The conditions noted are these: cited from earlier work.
Another series addresses PA-I (Pseudomonas aeruginosa, UniProt Q05097). The conditions noted are these: cited from earlier work.

PA-I, sequence (Q05097 whole entry): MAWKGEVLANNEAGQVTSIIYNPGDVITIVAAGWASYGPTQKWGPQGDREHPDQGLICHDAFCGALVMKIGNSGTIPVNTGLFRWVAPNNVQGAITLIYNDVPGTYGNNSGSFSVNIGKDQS

For the molecule dynorphin, the “PCN production (OD520 nm)” value in series [1] was “enhanced PCN production in a dose-dependent manner”.

In the case of `Nc1ncnc2c1ncn2[C@@H]1O[C@H](COP(=O)(O)O)[C@@H](O)[C@H]1O` [AMP], in series [2], the “PA-I expression, nucleosides and nucleotides” value is recorded as “no evident inducing effects”.

`Nc1ncnc2c1ncn2[C@@H]1O[C@H](COP(=O)(O)OP(=O)(O)OP(=O)(O)O)[C@@H](O)[C@H]1O` [ATP]: the “PA-I expression, nucleosides and nucleotides” value in series [2] was “no evident inducing effects”.

Regarding `Oc1ccc2c3c1O[C@H]1c4[nH]c5c(c4C[C@@]4(O)[C@@H](C2)N(CC2CC2)CC[C@]314)C[C@@]1(O)[C@H]2Cc3ccc(O)c4c3[C@@]1(CCN2CC1CC1)[C@H]5O4` [norbinaltorphimine, nor-binaltorphimine], in series [1], the “dose that completely inhibits enhanced PCN production” value was 200 µM and the “effect on U-50,488-enhanced PCN production” value is recorded as “attenuates enhanced PCN production”.

For TGF-β, the “binding to P. aeruginosa cell membranes” value in series [3] is on record as “No binding”.

Consider `Nc1ncnc2c1ncn2[C@@H]1O[C@H](COP(=O)(O)OP(=O)(O)O)[C@@H](O)[C@H]1O` [ADP], for which the “PA-I expression, nucleosides and nucleotides” value in [2] is given as “no evident inducing effects”.

On to `CC(=O)N[C@H]1C(O)O[C@H](CO)[C@H](O)[C@@H]1O` (stereo partly drawn) [GalNAc, N-acetyl-D-galactosamine], for which, in the series on PA-I mRNA in PA27853, the “PA-I mRNA increase in PA27853 densely adhered to Caco-2 cells” value is listed as “nearly completely abolished” and the “PA-I mRNA increase triggered by Caco-2 cell membrane fractions” value was “attenuated”. For the same molecule, in [4], the “adhesion of P. aeruginosa to intestinal epithelial cells” value is on record as “markedly decreased adhesion” and the “barrier function of intestinal epithelial cells” value is on record as “do not alter their barrier function”.

For `OC[C@H]1O[C@@H](n2cnc3c(O)ncnc32)[C@H](O)[C@@H]1O` [inosine], in [2], the “inosine concentration inducing PA-I expression, fold less than adenosine of equivalent effect” value is recorded as 10 fold; the “onset of PA-I expression compared with adenosine” value is reported as “earlier time point”; the “size of effect on PA-I expression compared with adenosine” value is recorded as “greater”.

On to IL-10: human cytokine, for which the “binding to P. aeruginosa cell membranes” value in series [3] is reported as “No binding”.

Consider `Nc1ncnc2c1ncn2[C@@H]1O[C@H](CO)[C@@H](O)[C@H]1O` [adenosine], for which, in [2], the “PA-I expression, nucleosides and nucleotides” value was “both dose- and time-dependent”; the “PA-I promoter activity, candidate compounds in HDMEM” value (shortened to “PA-I promoter activity”) was “enhanced fluorescence”.

Turning to `COC(=O)c1ccccc1N` [MA, methyl anthranilate], the “effect on ability of U-50,488 to enhance PCN production” value in [1] is on record as “inhibited the ability of U-50,488 to enhance PCN production”.

For the molecule `C[C@@H](O)C(=O)O` [D-lactate], the “PA-I promoter activity” value in series [2] is “no effect”.

In series [5], “recombinant human Interferon gamma (IFN-γ) (from UniProt P01579 24-166) (ligand)” returned a percent of bacterial cells that bound IFN-γ of 73%.

For the molecule IL-4: human cytokine, the “binding to P. aeruginosa cell membranes” value in series [3] was “No binding”.

On to `NC[C@H](O)c1ccc(O)c(O)c1` [norepinephrine], for which, in [6], the “PA-I expression, in vitro studies” value is “did not change PA-I expression; also recorded: not affected”. Moreover, the “effect on QS-dependent virulence factor PA-IL” value in the series on PA-IL in P. aeruginosa is “can also affect”.

For `C[C@H](O)C(=O)O` [L-lactate], the “PA-I promoter activity” value in series [2] was “no effect”.

For `OC[C@H]1O[C@H](OCC2O[C@@H](O)[C@H](O)[C@@H](O)[C@@H]2O)[C@H](O)[C@@H](O)[C@H]1O` (some centres unmarked) [mellibiose], in series [4], the “adhesion of P. aeruginosa to intestinal epithelial cells” value is “markedly decreased adhesion” and the “barrier function of intestinal epithelial cells” value is reported as “do not alter their barrier function”. Besides, on PA-I, the “binding affinity to PA-I” value is “highest binding affinity to date”.

In the case of “EGF: human cytokine tested for membrane binding”, the “binding to P. aeruginosa cell membranes” value in series [3] is reported as “No binding”.

B1: adenosine deaminase: enzyme added to deplete the media of adenosine (protein, UniProt P00813 2-363, looked up)
Adenosine deaminase: AQTPAFDKPKVELHVHLDGSIKPETILYYGRRRGIALPANTAEGLLNVIGMDKPLTLPDFLAKFDYYMPAIAGCREAIKRIAYEFVEMKAKEGVVYVEVRYSPHLLANSKVEPIPWNQAEGDLTPDEVVALVGQGLQEGERDFGVKARSILCCMRHQPNWSPKVVELCKKYQQQTVVAIDLAGDETIPGSSLLPGHVQAYQEAVKSGIHRTVHAGEVGSAEVVKEAVDILKTERLGHGYHTLEDQALYNRLRQENMHFEICPWSSYLTGAWKPDTEHAVIRLKNDQANYSLNTDDPLIFKSTLDTDYQMTKRDMGFTEEEFKRLNINAAKSSFLPEDEKRELLDLLYKAYGMPPSASAGQNL
With B1, the “PA-I expression after depleting adenosine from media of HIF-1-a-activated Caco-2 cells” value in series [2] (Caco-2) was “even greater increase in PA-I expression”.
